This test concerns the target human α7 nicotinic acetylcholine receptor (α7 nAChR) (Homo sapiens, UniProt P36544). The test can be described thus: Automated patch-clamp electrophysiology functional assay (Assay A). The class given is cell-based. The note with it: HEK cell line stably expressing human RIC-3 and human α7, IonFlux HT whole-cell population patch, 40 μM acetylcholine. Here is the method: The α7 nAChR positive allosteric modulator (PAM) activity of the present compounds may be tested using assays known in the art. The α7 nAChR PAMs described herein have activities in an automated patch-clamp electrophysiology functional assay as described in the examples. The assay was performed using the IonFlux HT in a whole-cell, population patch configuration. See Golden et al. Assay Drug Dev. Technol. (2011) 9:608-619. The compounds were assessed for their ability to modulate the function of the human […] nAChR stably expressed in a HEK cell line both in the presence, and in the absence of the natural 07 agonist acetylcholine. By performing a series of such measurements at different concentrations, the effective concentration of the α7 nAChR PAMs (EC50) was determined. See Spencer et al. Assay Drug Dev. Technol. (2012) 10:313-324.
Automated patch-clamp electrophysiology was performed using the IonFlux HT (Fluxion Biosciences Inc., San Francisco, Calif.) in the whole-cell, population patch configuration. Test compounds were assessed for their ability to modulate the function of the α7 nicotinic acetylcholine receptor both in the presence, and in the absence of the natural α7 agonist acetylcholine. A HEK cell line stably expressing both human RIC-3 and human α7 (PrecisION hnAChR α7/RIC-3, Eurofins Pharma, St. Charles, Mo.) was cultured in 175 cm^2 triple-layer tissue culture flasks to no more than 90% confluency in DMEM/F-12 growth media supplemented with 10% heat-inactivated fetal bovine serum, 1% non-essential amino acids, 0.625 μg/mL Puromycin, and 400 μg/mL Geneticin. Immediately prior to assay, cells were detached by first aspirating growth media, rinsing with Dulbecco's phosphate buffered saline, and then adding 10 mL of Accutase (Innovative Cell Technologies, San Diego, Calif.) to the flask and then incubating at 37° C. for 5 minutes. Detached cells were then recovered by the addition of 40 mL of CHO-serum-free media supplemented with 25 mM HEPES, and rocked gently in a 50 mL conical tube for 20 minutes prior to patch-clamp assay. After recovery, cells were pelleted by centrifugation at 1,000 RPM for 1 minute in a compact bench top centrifuge; recovery media was aspirated and cells were resuspended in external recording solution (150 mM NaCl, 5 mM KCl, 2 mM CaCl2, 1 mM MgCl2, 10 mM HEPES, 12 mM dextrose) to a density of 5.0×10^6 cells/mL. The cell suspension was added to the cell inlet wells on an IonFlux HT population patch plate which had previously been rinsed and primed with deionized H2O. Test compounds were serially diluted in DMSO and then resuspended to the final test concentration in external recording solution, with, or without 40 μM acetylcholine added to the external recording solution; test compounds were then transferred to the IonFlux HT population patch plate. Internal recording solution (110 mM TrisPO4, 28 mM TrisBase, 0.1 mM CaCl2, 2 mM MgCl2, 11 mM EGTA, 4 mM MgATP) was added to the internal recording solution inlet wells on the IonFlux HT patch plate previously loaded with cells and test compounds, and the plate loaded into the IonFlux HT instrument. A protocol was executed on the IonFlux HT to trap the cells, break into the cells, and establish the whole-cell recording configuration; cells were voltage-clamped at a holding potential of −60 mV for the duration of the experiment, all experiments were conducted at room temperature, and the IonFlux HT injection pressure was 8 psi for solution applications. Upon establishing the whole-cell configuration, external recording solution was perfused into the recording chambers for 120 seconds and then 40 μM acetylcholine was applied for 1 second and immediately washed off with external recording solution for 60 seconds. The 40 μM acetylcholine-evoked α7 current served as the current response to which subsequent test compound effects, in the presence, or in the absence of 40 μM acetylcholine would be quantified relative to. […]
(The patch-clamp technique gives a direct electrical read-out from membranes.)

Read-outs that look alike come from different tables or passages of the source.

Sequence of human α7 nicotinic acetylcholine receptor (α7 nAChR) (P36544 23-502): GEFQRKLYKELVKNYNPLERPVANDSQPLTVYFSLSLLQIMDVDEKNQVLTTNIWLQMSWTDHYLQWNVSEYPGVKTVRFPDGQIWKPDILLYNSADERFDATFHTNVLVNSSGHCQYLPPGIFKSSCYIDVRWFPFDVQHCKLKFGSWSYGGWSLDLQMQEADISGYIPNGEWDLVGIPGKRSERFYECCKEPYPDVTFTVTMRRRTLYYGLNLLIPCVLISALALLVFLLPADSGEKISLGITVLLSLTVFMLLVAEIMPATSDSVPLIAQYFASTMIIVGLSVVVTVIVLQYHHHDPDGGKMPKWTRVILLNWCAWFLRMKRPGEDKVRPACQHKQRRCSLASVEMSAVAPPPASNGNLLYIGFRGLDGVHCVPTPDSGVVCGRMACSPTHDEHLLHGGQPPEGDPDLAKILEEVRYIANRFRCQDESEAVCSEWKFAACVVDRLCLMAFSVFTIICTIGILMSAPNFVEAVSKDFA

As to `NS(=O)(=O)c1ccc([C@H]2[C@H](c3nc4ccccc4o3)C2(F)F)cc1` [Example A7, 4-[(1R,3R)-3-(1,3-Benzoxazol-2-yl)-2,2-difluoro-cyclopropyl]benzenesulfonamide], the EC50 was 52 nM (read-out: α7 nAChR EC50) and at most 100 nM (read-out: α7 nAChR Potency).

Turning to `CC1(C)[C@H](c2ccc(S(N)(=O)=O)cc2)[C@H]1c1nc2ccc(Cl)cc2o1` [Example B5, 4-[(1R,3R)-3-(6-Chloro-1,3-benzoxazol-2-yl)-2,2-dimethyl-cyclopropyl]benzenesulfonamide], the EC50 (read-out: α7 nAChR Potency) was in the range of 100 to 500 nM.

Consider `CC1(C)OC([C@@H]2[C@@H](c3ccc(S(N)(=O)=O)cc3)C2(F)F)=Nc2ccccc21` [Example D5, 4-[(1S,3S)-3-(4,4-Dimethyl-4H-3,1-benzoxazin-2-yl)-2,2-difluorocyclopropyl]benzenesulfonamide], for which the EC50 reads like this: (read-out: α7 nAChR EC50) 1100 nM; (read-out: α7 nAChR Potency) 500 to 5000 nM.

As for `CC1(C)[C@@H](c2ccc(S(N)(=O)=O)cc2)[C@@H]1c1nc2c(o1)CCCC2` [Example C3, 4-[(1S,3S)-2,2-Dimethyl-3-(4,5,6,7-tetrahydro-1,3-benzoxazol-2-yl)cyclopropyl]benzenesulfonamide], the EC50 is 120 nM (read-out: α7 nAChR EC50) and 100 to 500 nM (read-out: α7 nAChR Potency).

For `CC1(C)[C@H](c2ccc(S(N)(=O)=O)cc2)[C@H]1c1ncc2ccccc2n1` [Example D1, 4-[(1R,3R)-2,2-Dimethyl-3-quinazolin-2-yl-cyclopropyl]benzenesulfonamide], the EC50 (read-out: α7 nAChR EC50) stood at 7200 nM and the EC50 (read-out: α7 nAChR Potency) is 5000 to 50000 nM.

With `NS(=O)(=O)c1ccc(C2CC2c2ccc3nccnc3c2)cc1` (racemic) [Example E4, 4-(2-Quinoxalin-6-ylcyclopropyl)benzenesulfonamide], the EC50 (read-out: α7 nAChR Potency) was 500 to 5000 nM.

Consider `Cn1cc2ccc(C3CC3c3ccc(S(N)(=O)=O)cc3)cc2n1` (racemic) [Example E12, 4-[2-(2-Methylindazol-6-yl)cyclopropyl]benzenesulfonamide], for which the EC50 runs as follows: (read-out: α7 nAChR EC50) 5000 nM; (read-out: α7 nAChR Potency) 500 to 5000 nM.

For the compound `CC1(C)[C@H](c2ccc(S(N)(=O)=O)cc2)[C@H]1c1nc2ccc(F)cc2s1` [Example B9, 4-[(1R,3R)-3-(6-Fluoro-1,3-benzothiazol-2-yl)-2,2-dimethyl-cyclopropyl]benzenesulfonamide], the EC50 runs as follows: (read-out: α7 nAChR EC50) 170 nM; (read-out: α7 nAChR Potency) 100 to 500 nM.

In the case of `CC1(C)[C@H](c2ccc(S(N)(=O)=O)cc2)[C@H]1c1nc2c(F)cc(F)cc2o1` [Example B1, 4-[(1R,3R)-3-(4,6-Difluoro-1,3-benzoxazol-2-yl)-2,2-dimethyl-cyclopropyl]benzenesulfonamide], the EC50 (read-out: α7 nAChR Potency) fell in the range of 100 to 500 nM.

`CC1(C)[C@H](c2ccc(S(N)(=O)=O)cc2)[C@H]1c1nc2cccnc2o1` [Example 6, 4-[(1R,3R)-2,2-Dimethyl-3-([1,3]oxazolo[5,4-b]pyridin-2-yl)cyclopropyl]benzenesulfonamide]: the EC50 by setting is: (read-out: α7 nAChR EC50) 3400 nM; (read-out: α7 nAChR Potency) 500 to 5000 nM.

With `CC1(C)[C@H](c2ccc(S(N)(=O)=O)cc2)[C@H]1c1nc2c(F)cc(F)cc2s1` [Example B8, 4-[(1R,3R)-3-(4,6-Difluoro-1,3-benzothiazol-2-yl)-2,2-dimethyl-cyclopropyl]benzenesulfonamide], the EC50 (read-out: α7 nAChR Potency) was in the range of 100 to 500 nM.

Consider `NS(=O)(=O)c1ccc([C@H]2C[C@@H]2c2nc3ccccc3o2)cc1` [Example B4, 4-[(1S,2S)-2-(1,3-Benzoxazol-2-yl)cyclopropyl]benzenesulfonamide], for which the EC50 (read-out: α7 nAChR Potency) lay in the range of 500 to 5000 nM.

Regarding `NS(=O)(=O)c1ccc(C2CC2c2cnn3ccccc23)cc1` (racemic) [Example E3, 4-(2-Pyrazolo[1,5-a]pyridin-3-ylcyclopropyl)benzenesulfonamide], the EC50 is 3500 nM (read-out: α7 nAChR EC50) and 500 to 5000 nM (read-out: α7 nAChR Potency).

On to `NS(=O)(=O)c1ccc([C@@H]2C[C@H]2c2nc3c(o2)CCCC3)cc1` [Example 4, 4-[(1R,2R)-2-(4,5,6,7-Tetrahydro-1,3-benzoxazol-2-yl)cyclopropyl]benzenesulfonamide], for which the EC50 is 610 nM (read-out: α7 nAChR EC50) and 500 to 5000 nM (read-out: α7 nAChR Potency).

In the case of `CC1(C)[C@@H](c2ccc(S(N)(=O)=O)cc2)[C@@H]1c1ncc2ccccc2n1` [Example C1, 4-[(1S,3S)-2,2-Dimethyl-3-quinazolin-2-yl-cyclopropyl]benzenesulfonamide], the EC50 is, setting by setting: (read-out: α7 nAChR EC50) 1400 nM; (read-out: α7 nAChR Potency) 500 to 5000 nM.

On to `CC1(C)[C@@H](c2ccc(S(N)(=O)=O)cc2)[C@@H]1c1nc2ccc(F)cc2o1` [Example 2, 4-[(1S,3S)-3-(6-Fluoro-1,3-benzoxazol-2-yl)-2,2-dimethylcyclopropyl]benzenesulfonamide], for which the EC50 was 71 nM (read-out: α7 nAChR EC50) and at most 100 nM (read-out: α7 nAChR Potency).

Turning to `CC1(C)[C@H](c2ccc(S(N)(=O)=O)cc2)[C@H]1c1nc2ccccc2o1` [Example 1, 4-[(1R,3R)-3-(1,3-Benzoxazol-2-yl)-2,2-dimethylcyclopropyl]benzenesulfonamide], the EC50 was 620 nM (read-out: α7 nAChR EC50) and 500 to 5000 nM (read-out: α7 nAChR Potency).

For the compound `Cn1c([C@@H]2[C@@H](c3ccc(S(N)(=O)=O)cc3)C2(C)C)nc2cc(F)cc(F)c21` [Example D4, 4-[(1R,3R)-3-(5,7-Difluoro-1-methyl-benzimidazol-2-yl)-2,2-dimethyl-cyclopropyl]benzenesulfonamide], the EC50 (read-out: α7 nAChR Potency) lay in the range of 5000 to 50000 nM.

As to `NS(=O)(=O)c1ccc([C@@H]2[C@@H](c3nc4ccccc4s3)C2(F)F)cc1` [Example B12, 4-[(1S,3R)-3-(1,3-Benzothiazol-2-yl)-2,2-difluoro-cyclopropyl]benzenesulfonamide], under “read-out: α7 nAChR Potency”, the EC50 is 100 to 500 nM.

With `CC1(C)[C@@H](c2ccc(S(N)(=O)=O)cc2)[C@@H]1c1nc2ccc(Cl)cc2o1` [Example A5, 4-[(1S,3S)-3-(6-Chloro-1,3-benzoxazol-2-yl)-2,2-dimethyl-cyclopropyl]benzenesulfonamide], the EC50 runs as follows: (read-out: α7 nAChR EC50) 1200 nM; (read-out: α7 nAChR Potency) 500 to 5000 nM.

`NS(=O)(=O)c1ccc([C@@H]2C[C@H]2c2nc3ccc(F)cc3o2)cc1` [Example A2, 4-[(1R,2R)-2-(6-Fluoro-1,3-benzoxazol-2-yl)cyclopropyl]benzenesulfonamide]: the EC50 (read-out: α7 nAChR EC50) came to 60 nM and the EC50 (read-out: α7 nAChR Potency) is at most 100 nM.

For the compound `COc1cccc2oc([C@H]3[C@H](c4ccc(S(N)(=O)=O)cc4)C3(C)C)nc12` [Example A1, 4-[(1S,3S)-3-(4-Methoxy-1,3-benzoxazol-2-yl)-2,2-dimethyl-cyclopropyl]benzenesulfonamide], the EC50 is, setting by setting: (read-out: α7 nAChR EC50) 830 nM; (read-out: α7 nAChR Potency) 500 to 5000 nM.

On to `Cc1nc2c(C3CC3c3ccc(S(N)(=O)=O)cc3)cccc2s1` (racemic) [Example E1, 4-[2-(2-Methyl-1,3-benzothiazol-4-yl)cyclopropyl]benzenesulfonamide], for which the EC50 was 410 nM (read-out: α7 nAChR EC50) and 100 to 500 nM (read-out: α7 nAChR Potency).

Regarding `CC1(C)[C@@H](c2ccc(S(N)(=O)=O)cc2)[C@@H]1c1nc2ccc(F)cc2s1` [Example 10, 4-((1S,3S)-3-(6-Fluorobenzo[d]thiazol-2-yl)-2,2-dimethylcyclopropyl)benzenesulfonamide], the EC50 was 450 nM (read-out: α7 nAChR EC50) and 100 to 500 nM (read-out: α7 nAChR Potency).

Regarding `CC1(C)[C@@H](c2ccc(S(N)(=O)=O)cc2)[C@@H]1c1ncc2c(F)cccc2n1` [Example C2, 4-[(1S,3S)-3-(5-Fluoroquinazolin-2-yl)-2,2-dimethyl-cyclopropyl]benzenesulfonamide], for the setting “read-out: α7 nAChR Potency”, the EC50 was 500 to 5000 nM.

`NS(=O)(=O)c1ccc(C2CC2c2cnc3occc3c2)cc1` (racemic) [Example E11, 4-(2-Furo[2,3-b]pyridin-5-ylcyclopropyl)benzenesulfonamide]: the EC50 (read-out: α7 nAChR Potency) lay in the range of 500 to 5000 nM.

The record behind these values is US10870630B2, “Substituted bicyclic heteroaryl allosteric modulators of nicotinic acetylcholine receptors” (Merck Sharp & Dohme Corp., priority 2016, dated 2020).
